Experimental findings from patent publication US10934523B2, “Method for culture of stem cell” (RIKEN, priority 2008, dated 2021) are described below.

Experiment [1] concerns Human ES cells (KhES #1). The experiment in a line: Hypothalamus gene marker expression in human ES cells by modified SFEBq/gfCDM (quantitative PCR, day 31). The class given is cell-based. As to conditions: insulin 7 μg/ml, 31 days.
In experiment [2] the test system is Rx-GFP ES cells. Put plainly: Differentiation into hypothalamic progenitor cells by SFEBq/gfCDM, percentage of Rx-GFP+ cells by FACS on day 7. The class given is cell-based, mouse. The note with it: for Rx-GFP positivity rate recovered in the presence of insulin: LY294002 5 μM, Akt inhibitor VIII 2 μM. Here is the method: Differentiation culture was performed under the same culturing conditions as Example 13 for 7 days. For analyzing the differentiated cells, an antibody against the Rx protein, which is a hypothalamic and retinal progenitor cell marker, was used. In hypothalamic progenitor cells, in addition to Rx, a protein called nestin is expressed, whereas in retinal progenitor cells, only Rx is expressed but nestin is not expressed, so that hypothalamic progenitor cells were identified by a fluorescent immunostaining method with the co-expression of Rx and nestin as an index.
Furthermore, EB5 cells wherein GFP was knocked in at the Rx gene locus (hereinafter, Rx-GFP ES cells) were prepared, and the expression of Rx-GFP was also analyzed by FACS.
(§1) Differentiation culture was performed under the same culturing conditions as Example 14 for 7 days, and the influence of the addition of insulin to the medium on the differentiation of hypothalamic progenitor cells from ES cells was analyzed by FACS using Rx-GFP ES cells. The intracellular signal transduction of insulin is involved by roughly two pathways (MAPK pathway and PI3K-Akt pathway). […] LY294002, Akt inhibitor VIII, PD98059 or DMSO (vehicle control) was added on day 2 of cultivation.
On the technique in general: In flow cytometry, cells or beads pass a laser one at a time.

Experiment [3] has as its system aggregate masses derived from a mouse ES cell. The experiment in a line: Ca++ imaging (fluo4-AM) of cerebral neurons produced by the SFEBq method. Type of experiment: cell-based. Here is the method: To confirm the activities and network formation of cerebral neurons produced by the SFEBq method, an analysis was performed by a Ca^++ imaging method using fluo4-AM. The method of examination was as described in the literature (Ikegaya et al, 2005, Neurosci. Res., 52, 132-138).
Aggregate masses derived from a mouse ES cell cultured by the method described in Example 1 for 18 days were further cultured on the Transwell culture insert (Corning) using a DMEM/F12 medium supplemented with N2 for 7 days (FIG. 3A, view A). Ca^++ imaging was performed at room temperature using an artificial cerebrospinal fluid.

For experiment [4], the system named is Mouse ES cells (EB5 and Sox1-GFP ES cells). Put plainly: Nerve differentiation of mouse ES cells by the SFEBq/gfCDM method. The note with it: 15 μg/ml in differentiation medium. The class given is cell-based. Here is the method:
To induce the differentiation of nerves by suspension culture, ES cells were mono-dispersed using 0.25% trypsin-EDTA (Invitrogen), suspended in 150 μl of a differentiation medium to obtain a cell density of 3000 cells per well on a non-cell-adhesive 96-well culture plate (Lipidure-Coat, NOF Corp.), and incubated at 37° C., 5% CO2 for 5 days.
The differentiation medium used was Iscove's Modified Dulbecco's Medium (IMDM)/Hams F12 1:1 (Invitrogen) supplemented with 1× Chemically-defined lipid concentrate (Invitrogen), monothioglycerol (450 μM; Sigma) and bovine serum albumin (a recrystallization-purified product of >99% purity; Sigma).
Differentiation into nerve progenitor cells was analyzed as described previously (Watanabe et al., Nature Neuroscience, 2005) by FACS using Sox1-GFP ES cells that emit fluorescence when differentiated into nerves. The FACS was performed using FACSAria (Beckton Dickenson) and its data were analyzed using FACSDiva software. Nerve differentiation was also analyzed by a fluorescent immunostaining method using EB5 cells.

For experiment [5], the system named is Rx-GFP ES cells. Put plainly: Dorsal/ventral hypothalamic marker expression in Rx-GFP-positive re-aggregate masses (fluorescent immunostaining, day 13). Type of experiment: cell-based, mouse. As to the method:
The cells of each fraction were dispensed to a non-cell-adhesive 96-well culture plate at 2500-5000 cells per well, and further cultured using a DMEM/F12 medium supplemented with 7 g/L glucose, 10% KSR and penicillin/streptomycin for 3 days. […] Three days later, half the medium was replaced with a DFNB medium (a DMEM/F12 supplemented with 7 g/l of glucose, 1×N2 supplement and 1×B27 supplement) supplemented with 10 ng/ml of CNTF, and the cells were further cultured for 3 days.
After cultivation for a total of 13 days, the re-aggregate masses were prepared as frozen sections, and the properties of the differentiated cells were analyzed by a fluorescent immunostaining method. For evaluating the effect of Shh, 30 nM Shh was added from 4 days after the start of cultivation.

Experiment [6] deals with Bf1/Venus-mES cells. The experiment in a line: Layer-specific neuron differentiation of FACS-sorted, re-aggregated SFEBq cerebral progenitors after Notch inhibition (fluorescent immunostaining). Type of experiment: cell-based, mouse. As to conditions: further 6 days culture. As to the method: After Bf1/Venus-mES cells were cultured for differentiation for different lengths of periods (9 days or 12 days), the resulting Venus-positive cells were separated by FACS, and rapid re-aggregation (5000 cells/well) was performed using a non-cell-adhesive 96-well culture plate. Starting on the following day, rapid induction of differentiation into neurons was performed by a treatment with the Notch inhibitor DAPT (10 μM; known to promote neuron differentiation; Nelson et al, 2007); after further differentiation culture for 6 days, layer-specific markers were analyzed by a fluorescent immunostaining method (FIG. 6, view A).

For experiment [7], the system named is SFEBq culture product. Put plainly: qPCR of marker genes in the SFEBq culture product with insulin. The class given is cell-based, mouse. The note with it: insulin treatment. Here is the method:
The expression of a marker gene is analyzed by, for example, performing quantitative PCR using the 7500 Fast Real-Time PCR System (Applied Biosystems) in accordance with the manufacturer's instructions, and normalizing the obtained data by the expression of GAPDH. The method of quantitative PCR is obvious to those skilled in the art. Alternatively, cells may be manipulated to allow the desired marker gene to be expressed as a fusion protein of a marker gene product and GFP or the like (knocking-in). It is also possible to detect the expression of the protein using an antibody specific for a marker gene product.
as §1
(In general: In qPCR the cycle at which signal appears reflects the starting amount.)

The subject of experiment [8] is Bf1/Venus-mES cells. Put plainly: Cerebral site-specific differentiation of re-aggregated SFEBq cerebral progenitors with secreted pattern formation factors (fluorescent immunostaining). The class given is cell-based, mouse. As to conditions: BMP4 0.5 ng/ml. Here is the method:
Bf1/Venus-mES cells were cultured for differentiation by the SFEBq method for 7 days, after which the resulting Venus-positive cells were separated by FACS, and rapid re-aggregation (5000 cells/well) was performed using a non-cell-adhesive 96-well culture plate. Secreted pattern formation factors such as Fgf 8b (50 ng/ml), the Fgf receptor inhibitor FGFR3-Fc (50 ng/ml), Wnt3a (20 ng/ml), and BMP4 (0.5 ng/ml) were added thereto, and the cells were cultured for 3 to 12 days. The expression of cerebral part-specific markers was analyzed by a fluorescent immunostain method (FIG. 7A, view A).

Where [9] appears, read: 7 μg/ml insulin, added on day 2.
Setting [10] is: 10 μM treatment after 12 days of differentiation culture.
The mark [11] stands for this setting: room temperature, artificial cerebrospinal fluid.

Entries after “also recorded” stand apart in the source; their conditions may differ. Like-named read-outs stand apart in the source and are kept apart here.

For `O=c1[nH]c2ccccc2n1C1CCN(Cc2ccc(-c3nc4cc5[nH]cnc5cc4nc3-c3ccccc3)cc2)CC1` [Akt inhibitor VIII, 1,3-Dihydro-1-(1-((4-(6-phenyl-1H-imidazo[4,5-g]quinoxalin-7-yl)phenyl)methyl)-4-piperidinyl)-2H-benzimidazol-2-one], in experiment [1], the “Rx expression without addition of Akt inhibitor VIII, relative to culture with 2 μM from day 9” value is listed as 50% and the “Vax1 expression without addition of Akt inhibitor VIII, relative to culture with 2 μM from day 9” value turned out to be 25%. Moreover, the “Rx-GFP positivity rate recovered in the presence of insulin” value in experiment [2] (setting [9]) is given as roughly 28%.

Take `NC1=N[C@H](O)[C@H]2[C@H]3O[C@]4(O)O[C@@H]([C@@H](O)[C@@]2(N1)[C@@H]4O)[C@]3(O)CO` [tetrodotoxin]: in experiment [3], the “Ca++ elevations synchronized or not synchronized with surrounding cells” value is “inhibited” and the “repeated synchronized Ca++ elevations over a long distance (Ca++ oscillation)” value is listed as “inhibited”.

On to `COc1cccc(-c2cc(=O)c3ccccc3o2)c1N` [PD98059], for which the “antagonism of the inhibitory effect of insulin on differentiation into hypothalamic progenitor cells” value in experiment [2] (7 μg/ml insulin, PD98059 0.5-10 μM, added on day 2) is “did not antagonize; also recorded: not noted”.

In the case of `O=[Se](O)O` [sodium selenite], in experiment [2] (concentration in differentiation medium increased from 0.017 mg/L to 0.025 mg/L, control 50-70%), the “percentage of Rx-GFP” value is recorded as “about 80%”.

For “human apo-transferrin: human apo-transferrin (Sigma), medium additive”, the “influence of addition or non-addition on the differentiation results” value in experiment [4] was “did not influence”.

`c1ccc2c(Oc3nc(Nc4ccc(N5CCOCC5)cc4)c4ncn(C5CCCCC5)c4n3)cccc2c1` [Purmorphamine, 2-(1-Naphthoxy)-6-(4-morpholinoanilino)-9-cyclohexylpurine]: in experiment [5] (Cyclopamine treatment, Purmorphamine 0.5 μM in place of Shh), the “expression of dorsal/ventral hypothalamus markers compared with the Shh treatment” value is reported as “same effects as with Shh”.

As to `CC1=C2C[C@H]3[C@@H](CC=C4C[C@@H](O)CC[C@@]43C)[C@@H]2CC[C@]12O[C@@H]1C[C@H](C)CN[C@H]1[C@H]2C` [Cyclopamine, 11-Deoxojervine], the “expression of dorsal/ventral hypothalamus markers compared with the Shh treatment” value in experiment [5] is reported as “reverse result”.

In the case of `C[C@H](NC(=O)Cc1cc(F)cc(F)c1)C(=O)N[C@H](C(=O)OC(C)(C)C)c1ccccc1` [DAFT], the “cells differentiated into Reelin-positive Cajal-Retzius cells” value in experiment [6] (10 μM treatment after 9 days of differentiation culture) was “more than 50%”. Further, in experiment [6] (setting [10]), the Reelin-positive cells entry is reported as “less than 10%” and the “cells differentiated into Ctip2/Emx1-positive cerebral cortical neurons specific for the 5th layer” value is on record as “more than 60%”.

Regarding `Cl.O=c1cc(N2CCOCC2)oc2c(-c3ccccc3)cccc12` [LY294002, 2-(4-morpholinyl)-8-phenyl-1(4H)-benzopyran-4-one hydrochloride], the “Rx-GFP positivity rate recovered in the presence of insulin” value in experiment [2] (setting [9]) is “about 20%”.

For “insulin: insulin added to serum-free medium”, the “expression of a caudal marker” value in experiment [7] is reported as “induced moderately”. Also, the “expression of the most rostral CNS marker” value in experiment [7] was “suppressive effect”. For the same molecule, the Rx-GFP positivity rate entry in experiment [2] (7 μg/ml insulin) is listed as “less than 5%”. Moreover, the “expression of Rx-GFP, time-window analysis” value in experiment [2] (insulin 7 μg/ml added to gfCDM on day 5 or before) is “suppressed”. Moreover, the results for the “effect on Rx-GFP+%, time-window analysis” value in experiment [2] (insulin 7 μg/ml present after day 4) and in experiment [2] (insulin 7 μg/ml present during the first 3 days) were “decreased substantially” and “almost no inhibitory effect”, respectively.

`NC(=O)CC[C@H](N)C(=O)O` [glutamine]: the “Ca++ elevations synchronized or not synchronized with surrounding cells” value in experiment [3] (setting [11]) was “enhanced”.

Regarding `N#Cc1cc2[nH]c(=O)c(=O)[nH]c2cc1[N+](=O)[O-]` [CNQX], in experiment [3] (setting [11]), the “repeated synchronized Ca++ elevations over a long distance (Ca++ oscillation)” value is recorded as “inhibited”.

B1: Wnt3a: protein belonging to the Wnt family, Wnt signal promoter (protein, UniProt P56704 19-352, looked up)
Protein Wnt-3a: SYPIWWSLAVGPQYSSLGSQPILCASIPGLVPKQLRFCRNYVEIMPSVAEGIKIGIQECQHQFRGRRWNCTTVHDSLAIFGPVLDKATRESAFVHAIASAGVAFAVTRSCAEGTAAICGCSSRHQGSPGKGWKWGGCSEDIEFGGMVSREFADARENRPDARSAMNRHNNEAGRQAIASHMHLKCKCHGLSGSCEVKTCWWSQPDFRAIGDFLKDKYDSASEMVVEKHRESRGWVETLRPRYTYFKVPTERDLVYYEASPNFCEPNPETGSFGTRDRTCNVSSHGIDGCDLLCCGRGHNARAERRREKCRCVFHWCCYVSCQECTRVYDVHTCK
B1: in experiment [8] (Wnt3a 20 ng/ml), the “cells expressing Otx2 and Lmx1a (hem area markers)” value is 2-30%.

B2: BMP4: protein belonging to the BMP family, BMP signal promoter (protein, UniProt P12644 293-408, looked up)
Bone morphogenetic protein 4: SPKHHSQRARKKNKNCRRHSLYVDFSDVGWNDWIVAPPGYQAFYCHGDCPFPLADHLNSTNHAIVQTLVNSVNSSIPKACCVPTELSAISMLYLDEYDKVVLKNYQEMVVEGCGCR
Regarding B2, the “differentiation of choroidal tissue (TTR-positive)” value in experiment [8] is “noted”.
